From patent US8889670B2, “Heterocyclic compounds which modulate the CB2 receptor” (Boehringer Ingelheim International GmbH, priority 2009, dated 2014)
Read-outs that look alike come from different tables or passages of the source.

Biological target: T1, human CB2R (Homo sapiens, UniProt P34972)
T1 construct: host or cells: CHO cells
Test: CB2R mediated modulation of cAMP synthesis (forskolin-stimulated cAMP, CHO cells expressing human CB2R)
Type: cell-based
Outline: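 cAMP measured with the DiscoverX-XS kit after 30 min, 37° C. compound exposure of human CB2R-expressing CHO cells stimulated by 10 uM forskolin (1 mM IBMX, 0.25% BSA).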

[1] = agonist EC50, inhibition of forskolin-stimulated cAMP synthesis, CHO cells expressing human CB2R, mean, read-out: CB2 CAMP @ EC50 nM (mean)

T1 sequence (P34972 whole entry): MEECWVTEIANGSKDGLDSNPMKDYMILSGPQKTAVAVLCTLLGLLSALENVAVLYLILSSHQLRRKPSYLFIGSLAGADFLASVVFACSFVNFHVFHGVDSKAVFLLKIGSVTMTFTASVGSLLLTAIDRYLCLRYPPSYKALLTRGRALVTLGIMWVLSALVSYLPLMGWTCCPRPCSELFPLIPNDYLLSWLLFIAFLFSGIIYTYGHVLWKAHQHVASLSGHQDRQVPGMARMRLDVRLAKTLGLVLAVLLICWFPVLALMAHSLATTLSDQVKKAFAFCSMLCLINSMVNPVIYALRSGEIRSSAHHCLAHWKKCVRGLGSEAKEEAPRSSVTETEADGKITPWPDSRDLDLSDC

EC50 [1] [nM]	Compound	EC50 [nM]
365	CCn1nc(NC(=O)[C@@H]2CCCCN2C(=O)CC2CCS(=O)(=O)C2)nc1-c1ccccc1 (stereo partly drawn) [(S)-1-[2-(1,1-Dioxo-tetrahydro-1λ^6-thiophen-3-yl)-acetyl]-piperidine-2-carboxylic acid (1-ethyl-5-phenyl-1H-1,2,4-triazol-3-yl)-amide]	
	CC(C)(C)c1cc(NC(=O)[C@@H]2CCCCN2C(=O)CC2CCS(=O)(=O)C2)no1 (stereo partly drawn) [(S)-1-[2-(1,1-Dioxo-tetrahydro-1λ^6-thiophen-3-yl)-acetyl]-piperidine-2-carboxylic acid (5-tert-butyl-isoxazol-3-yl)-amide]	7.7
	CC(C)(C)c1cc(NC(=O)[C@@H]2CCCCN2C(=O)CN2CCC(F)(F)C2)no1 [(S)-1-[2-(3,3-Difluoro-pyrrolidin-1-yl)-acetyl]-piperidine-2-carboxylic acid (5-tert-butyl-isoxazol-3-yl)-amide]	2.9
	CC(C)(C)c1cc(NC(=O)[C@@H]2CCCCN2C(=O)CN2CCC(F)(F)CC2)no1 [(S)-1-[2-(4,4-Difluoro-piperidin-1-yl)-acetyl]-piperidine-2-carboxylic acid (5-tert-butyl-isoxazol-3-yl)-amide]	34
	CC(C)(C)c1cc(NC(=O)[C@@H]2CCCCN2C(=O)CN2CCC(F)CC2)no1 [(S)-1-[2-(4-Fluoro-piperidin-1-yl)-acetyl]-piperidine-2-carboxylic acid (5-tert-butyl-isoxazol-3-yl)-amide]	75
180	CCc1sc(NC(=O)[C@@H]2CCCCN2C(=O)OC(C)(C)C)nc1-c1ccccc1 [(S)-2-(5-Ethyl-4-phenyl-thiazol-2-ylcarbamoyl)-piperidine-1-carboxylic acid tert-butyl ester]	
495	CC(C)(C)OC(=O)N1CCCC[C@H]1C(=O)Nc1nnc(C(C)(C)C)s1 [(S)-2-(5-tert-Butyl-1,3,4-thiadiazol-2-ylcarbamoyl)-piperidine-1-carboxylic acid tert-butyl ester]	
11	O=C(Nc1nc(-c2ccccc2)ns1)[C@@H]1CCCCN1c1ncc(C(F)(F)F)cc1Cl [(S)-3′-Chloro-5′-trifluoromethyl-3,4,5,6-tetrahydro-2H-1,2′-bipyridinyl-2-carboxylic acid (3-phenyl-1,2,4-thiadiazol-5-yl)-amide]	
	CC(C)(C)c1cc(NC(=O)[C@@H]2CCCCN2c2ncc(C(F)(F)F)cc2Cl)no1 [(S)-3′-Chloro-5′-trifluoromethyl-3,4,5,6-tetrahydro-2H-[1,2′]bipyridinyl-2-carboxylic acid (5-tert-butyl-isoxazol-3-yl)-amide]	0.18

Compound	EC50 [1] [nM]	EC50 [nM]
CCn1nc(NC(=O)[C@@H]2CCCCN2C(=O)CN2CCC(F)(F)C2)nc1-c1ccccc1 [(S)-1-[2-(3,3-Difluoro-pyrrolidin-1-yl)-acetyl]-piperidine-2-carboxylic acid (1-ethyl-5-phenyl-1H-1,2,4-triazol-3-yl)-amide]	262	
CC(C)(C)OC(=O)N1CCCC[C@H]1C(=O)Nc1cc(C(C)(C)C)on1 [(S)-2-(5-tert-Butyl-isoxazol-3-ylcarbamoyl)-piperidine-1-carboxylic acid tert-butyl ester]	279	
